# Values quoted from earlier work in patent publication US20160361293A1, “NANOSTRUCTURED COMPOSITION COMPRISING INDOMETHACINE, ITS PHARMACEUTICALLY ACCEPTABLE SALTS AND CO-CRYSTALS AND PROCESS FOR THE PREPARATION THEREOF” (DARHOLDING KFT., priority 2014, published 2016).
# Assays:
# [1] = in vivo
# [2] = not given; remark: listed apart in the source
smiles,measurement,setting,value
"COc1ccc2c(c1)c(CC(=O)O)c(C)n2C(=O)c1ccc(Cl)cc1 [Indomethacin, 1-(4-chlorobenzoyl)-5-methoxy-2-methyl-1H-indole-3-acetic acid]",mean half-life,[1],about 4.5 hours
same,solubility in alcohol,"alcohol, in words",sparingly soluble
same,water solubility,water,50 µg/mL
same,solubility in water,"water, in words",practically insoluble
same,stability in neutral or slightly acidic media,[2]; neutral or slightly acidic media,stable
same,stability in strong alkali,[2]; strong alkali,decomposes
